Key:
[1] = test system: stratum corneum (skin cell turnover); assay: In vivo inhibition of UV-induced skin cell renewal, dansyl chloride staining technique; parameters: species or system human
Experimental: The dansyl chloride staining technique is used to measure rates of skin cell turnover, under normal conditions and under conditions of exposure to ultraviolet light with and without protection from various test materials.
Summarizing known procedural methods, the stratum corneum is stained with fluorescent dansyl chloride by applying semi-occlusive patches of 5% dansyl chloride milled into petrolatum for 24 hours. After assuring that the stain is completely taken up by the stratum corneum layers by viewing under a quartz mineral lamp, subjects are instructed to apply water or the test product. Skin sites are treated with the various doses of UV indicated in MED in Table 6A, below, 3 days prior to and 1 day after patching with dansyl chloride. Visual inspection of the sites under UV lamp is made until the stain disappears reflecting the time required for complete turnover of the full thickness stratum corneum. Changes in cell renewal due to test material effects and UV exposure can be expressed as a percentage change compared to water-treated or untreated controls.

[2] = test system: Cytochrome C; assay: In vitro cytochrome C oxidation-reduction assay in the presence of isolated neutrophils (antioxidant activity); type: biochemical
Text: An in vitro cytochrome C oxidation-reduction assay conducted in the presence of isolated neutrophils is used to assess the antioxidant activity of a group of test materials comprising aqueous extracts of the inventive mixed tea blend prepared by the method of Example 3 having the concentrations indicated in Table 1, below, and known antioxidant materials, namely green tea extract, white tea extract, grape polyphenols and vitamin E, as controls. Reduction of cytochrome C by free radicals causes an increase in light absorbence at 550 nm. Cytochrome C is an ubiquitous iron-containing cellular respiratory enzyme. Singlet oxygen prevents free radical reduction and the consequent increase in light absorbance. The oxidation-reduction assay determines the ability of the test materials to control the activity of chemically generated singlet oxygen, permitting the reductive free radicals to induce increased light absorbence, which is measured.
The assay system employed, determination of the impact of singlet oxygen on a biological entity, cytochrome C, is believed to be a useful model of in vivo activity. However, the invention is not dependent upon this or any other theory.

[3] = test system: fibroblasts and keratinocytes; assay: Free radical (ROS, xanthine oxidase/hypoxanthine) cytotoxicity inhibition, MTT dye method; type: cell-based; conditions: about 24 hours
Text: Xanthine oxidase and hypoxanthine, referenced “XO” in Table 2, are employed together as a system to generate free radicals such as hydrogen peroxide, the hydroxyl radical and superoxide, as is known in the art. The free radical products of xanthine oxidase and hypoxanthine referenced “ROS” hereinafter, provide a test system which can be used to model the ability of test materials to protect biological organisms against the action of free radicals.
Test 2 determines the ability of the group of test materials employed in Test 1 to reduce ROS cytotoxicity to fibroblasts and keratinocytes. Cells are seeded in 96-well plates and grown for two days. They are then exposed for about 24 hours to hypoxanthine at 100 □ g/ml and to various concentrations of xanthine oxidase, ranging, as shown in Table 2's column headers, from 2 mU/ml to 40 mU/ml. Fresh culture medium is added after exposure to ROS and cell death is assessed by the conventional MTT dye method wherein light absorbence at 570 nm is measured. Only living cells take up the MTT dye which absorbs at the measurement wavelength. The cytotoxicity test results, using the quantity of the test materials listed to inhibit free radical toxicity, are set forth in Table 2, below. The control is an aliquot of water.

[4] = test system: Fibroblasts; assay: UV cytotoxicity assay, cell count in hemocytometer; type: cell-based
Experimental: Fibroblasts, grown in Dulbecco medium (DM) supplemented with fetal calf serum are plated in 24 well plates at a density of 20,000 cells per well. Twelve hours after plating, fresh DM with fetal calf serum is added. After an additional 12 hours various test materials as set forth in Table 3, are added to the wells. Six, twelve and twenty four hours later, cultures are exposed to UV at varying low and high doses. The low dose is chosen to stimulate growth and cause a hyper-proliferative response, while the higher dose is chosen to induce cytotoxic effects. After 72 and 144 hours, cells are trypsinized, and counted in a hemocytometer chamber. The cytotoxicity test results using the indicated quantities of the test materials to inhibit free radical toxicity, are set forth in Table 3, below. The control is an aliquot of water.

Substance: vitamin E
- Hyperproliferative Effect ([1]; decrease in turnover time with UV versus no UV): 41.9%
- Skin cell turnover, No UV Exposure ([1]; time for dansyl chloride stain to disappear (Table 5 gives turnover in days), no UV): 18.1
- Skin cell turnover, UV Exposure ([1]; time for dansyl chloride stain to disappear (Table 5 gives turnover in days), with UV exposure): 10.5
- Protection against UV-induced hyperproliferation (in words) ([1]; topical, UV exposure): no protection
- Inhibition of Cytochrome C Oxidation ([2]; test material 0.1 μg/ml): 21%
- Inhibition of Cytochrome C Oxidation ([2]; test material 1.0 μg/ml): 15%
- Inhibition of Cytochrome C Oxidation ([2]; test material 10 μg/ml): 11%
- Inhibition of Cytochrome C Oxidation ([2]; test material 25 μg/ml): 14%
- Cell Survival after Exposure to ROS Free Radicals ([3]; XO 2 mU, hypoxanthine […]): 89%
- Cell Survival after Exposure to ROS Free Radicals ([3]; XO 10 mU, hypoxanthine 100 µg/ml): 47%
- Cell Survival after Exposure to ROS Free Radicals ([3]; XO 20 mU, hypoxanthine 100 µg/ml): 25%
- Cell Survival after Exposure to ROS Free Radicals ([3]; XO 40 MU, hypoxanthine […]): 13%
- Cell Survival after Exposure to UV ([4]; UV 1 mJ/cm2): 65%
- Cell Survival after Exposure to UV ([4]; UV 2 mJ/cm2): 42%
- Cell Survival after Exposure to UV ([4]; UV 5 mJ/cm2): 35%
- Cell Survival after Exposure to UV ([4]; UV 10 mJ/cm2): 20%

Source: patent US20050084546A1, “Antioxidant and antiactinic tea plant products” (priority 2003, published 2005)
